Assay results from ChEMBL document CHEMBL3351921, “Structure-activity relationships (SAR) and structure-kinetic relationships (SKR) of pyrrolopiperidinone acetic acids as CRTh2 antagonists” (Bioorg Med Chem Lett, 2014).

Assays:
[1] = biological target: T1, Prostaglandin D2 receptor 2 (Homo sapiens, UniProt Q9Y5Y4); experiment: Antagonist activity at CRTh2 (unknown origin) stably expressed in PGD2-stimulated CHO.K1 cells preincubated for 1 hr by radio-labelled [35S]-GTPgammaS binding assay; assay type: functional, cell-based
T1 sequence (Q9Y5Y4 whole entry): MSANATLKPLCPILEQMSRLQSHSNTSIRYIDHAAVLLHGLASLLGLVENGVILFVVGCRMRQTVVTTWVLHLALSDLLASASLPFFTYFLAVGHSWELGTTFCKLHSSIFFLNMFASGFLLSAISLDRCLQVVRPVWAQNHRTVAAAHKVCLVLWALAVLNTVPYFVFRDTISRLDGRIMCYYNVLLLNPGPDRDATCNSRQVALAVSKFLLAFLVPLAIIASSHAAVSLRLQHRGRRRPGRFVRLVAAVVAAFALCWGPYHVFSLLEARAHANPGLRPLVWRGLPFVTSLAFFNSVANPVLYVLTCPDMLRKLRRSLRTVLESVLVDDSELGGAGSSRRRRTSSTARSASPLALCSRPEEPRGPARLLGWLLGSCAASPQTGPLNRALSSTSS

[2] = biological target: T2, Prostaglandin D2 receptor 2 (Homo sapiens) (UniProt Q9Y5Y4); conditions: CHO.K1
T2 sequence (whole entry): T1 sequence (Q9Y5Y4 whole entry)
Description: Antagonist activity at CRTh2 (unknown origin) stably expressed in PGD2-stimulated CHO.K1 cells assessed as dissociation half-life at 5 to 10 times IC50 after 2 hrs by radio-labelled [35S]-GTPgammaS binding assay

[3] = Dissociation constant, pKa of the compound by potentiometric method; assay type: physicochemical
[4] = biological target: T3, Prostaglandin D2 receptor (Homo sapiens) (UniProt Q13258); experiment: Inhibition of at prostanoid DP1 receptor (unknown origin) at 10 uM
T3 sequence (whole entry): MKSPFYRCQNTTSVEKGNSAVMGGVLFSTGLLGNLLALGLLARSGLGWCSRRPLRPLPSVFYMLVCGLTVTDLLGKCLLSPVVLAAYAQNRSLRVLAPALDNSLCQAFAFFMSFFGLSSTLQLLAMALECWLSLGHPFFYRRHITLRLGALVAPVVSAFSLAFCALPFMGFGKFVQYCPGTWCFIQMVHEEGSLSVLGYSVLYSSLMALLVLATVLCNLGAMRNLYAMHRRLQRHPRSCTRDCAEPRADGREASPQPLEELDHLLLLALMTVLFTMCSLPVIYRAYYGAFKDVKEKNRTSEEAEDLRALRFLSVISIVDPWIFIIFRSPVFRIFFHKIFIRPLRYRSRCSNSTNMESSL

[5] = biological target: T4, Thromboxane A2 receptor (Homo sapiens) (UniProt P21731); experiment: Inhibition of at prostanoid TP receptor (unknown origin) at 10 uM
T4 sequence (whole entry): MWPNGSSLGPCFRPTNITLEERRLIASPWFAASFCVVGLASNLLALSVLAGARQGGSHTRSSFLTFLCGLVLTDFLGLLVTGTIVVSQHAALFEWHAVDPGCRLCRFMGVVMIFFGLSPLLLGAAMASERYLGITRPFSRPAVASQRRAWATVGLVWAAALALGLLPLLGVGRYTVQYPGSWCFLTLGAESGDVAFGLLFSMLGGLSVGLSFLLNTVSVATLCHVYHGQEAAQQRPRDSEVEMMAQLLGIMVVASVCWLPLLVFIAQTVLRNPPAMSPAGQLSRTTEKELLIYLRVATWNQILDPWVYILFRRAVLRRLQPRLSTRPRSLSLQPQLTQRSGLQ

[6] = Apparent permeability across apical to basolateral side of human Caco2 cells at pH 7.4; assay type: ADME, cell-based; conditions: Caco-2, pH 7.4
[7] = Cmax in rat at 10 mg/kg, po; assay type: ADME, organism-based; parameters: dose 10 mg/kg, route oral; conditions: in vivo
[8] = AUC (0 to infinity) in rat at 1 mg/kg, iv; assay type: ADME, organism-based; parameters: time infinity, dose 1 mg/kg, route intravenous; conditions: plasma
[9] = Volume of distribution at steady state in rat at 1 mg/kg, iv; assay type: ADME, organism-based; parameters: dose 1 mg/kg, route intravenous; conditions: in vivo, read-out: Vdss
[10] = Terminal half life in rat at 1 mg/kg, iv; assay type: ADME, organism-based; parameters: dose 1 mg/kg, route intravenous; conditions: in vivo, read-out: beta t1/2 (converted)
[11] = Oral bioavailability in rat at 10 mg/kg; assay type: ADME, organism-based; conditions: in vivo
[12] = Cmax in rat at 1 mg/kg, iv; assay type: ADME, organism-based; parameters: dose 1 mg/kg, route intravenous; conditions: in vivo
[13] = Terminal half life in rat at 10 mg/kg, po; assay type: ADME, organism-based; parameters: dose 10 mg/kg, route oral; conditions: in vivo, read-out: beta t1/2 (converted)
[14] = Clearance in rat at 1 mg/kg, iv; assay type: ADME, organism-based; parameters: dose 1 mg/kg, route intravenous; conditions: in vivo
[15] = AUC (0 to infinity) in rat at 10 mg/kg, po; assay type: ADME, organism-based; parameters: time infinity, dose 10 mg/kg, route oral; conditions: plasma
[16] = biological target: T1, Prostaglandin D2 receptor 2; experiment: Antagonist activity at CRTh2 (unknown origin) stably expressed in PGD2-stimulated CHO.K1 cells preincubated for 120 mins by radio-labelled [35S]-GTPgammaS binding assay; assay type: functional, cell-based
[17] = biological target: T1, Prostaglandin D2 receptor 2; experiment: Antagonist activity at CRTh2 (unknown origin) stably expressed in PGD2-stimulated CHO.K1 cells preincubated for 30 mins by radio-labelled [35S]-GTPgammaS binding assay; assay type: functional, cell-based
[18] = biological target: T1, Prostaglandin D2 receptor 2; experiment: Antagonist activity at CRTh2 (unknown origin) stably expressed in CHO.K1 cells co-mixing the compound and PGD2 by radio-labelled [35S]-GTPgammaS binding assay; assay type: functional, cell-based
[19] = biological target: T1, Prostaglandin D2 receptor 2; experiment: Antagonist activity at CRTh2 (unknown origin) stably expressed in PGD2-stimulated CHO.K1 cells preincubated for 60 mins by radio-labelled [35S]-GTPgammaS binding assay; assay type: functional, cell-based
[20] = biological target: T1, Prostaglandin D2 receptor 2; experiment: Antagonist activity at CRTh2 (unknown origin) stably expressed in PGD2-stimulated CHO.K1 cells preincubated for 15 mins by radio-labelled [35S]-GTPgammaS binding assay; assay type: functional, cell-based
[21] = biological target: T1, Prostaglandin D2 receptor 2; experiment: Antagonist activity at CRTh2 (unknown origin) stably expressed in PGD2-stimulated CHO.K1 cells preincubated for 180 mins by radio-labelled [35S]-GTPgammaS binding assay; assay type: functional, cell-based

IC50 [1] [nM]	T1/2 [2] [h]	SMILES	also measured
8.5	1.2	Cc1c(Cc2ccccc2S(=O)(=O)c2ccc(Cl)cc2)c2c(n1CC(=O)O)CCNC2=O	–
32	0.4	Cc1c(Cc2ccccc2C(O)c2ccccc2)c2c(n1CC(=O)O)CCNC2=O (centres undefined)	pKa [3]: 3.1
–	18	Cc1c(Cc2ccccc2S(=O)(=O)c2ccc(F)cc2)c2c(n1CC(=O)O)CC(C)(C)NC2=O	–
170	–	Cc1c(Cc2ccc(S(=O)(=O)c3ccccc3)cc2)c2c(n1CC(=O)O)CCNC2=O	–
–	0.9	Cc1c(Cc2ccc(C(F)(F)F)cc2S(=O)(=O)c2ccccc2)c2c(n1CC(=O)O)CCNC2=O	inhibition [4]: < 30%; inhibition [5]: < 30%
–	1.2	Cc1c(Cc2ccccc2S(=O)(=O)c2cccc(Cl)c2)c2c(n1CC(=O)O)CCNC2=O	pKa [3]: 3.1; inhibition [4]: < 30%; inhibition [5]: < 30%
550	–	CCS(=O)(=O)c1ccccc1Cc1c2c(n(CC(=O)O)c1C)CCNC2=O	–
530	–	Cc1c(Cc2ccccc2Oc2ccccc2)c2c(n1CC(=O)O)CCNC2=O	–
22	0.6	Cc1c(Cc2ccccc2S(=O)(=O)N2CCOCC2)c2c(n1CC(=O)O)CCNC2=O	–
–	1.7	Cc1c(Cc2cc(F)ccc2S(=O)(=O)c2ccccc2)c2c(n1CC(=O)O)CCNC2=O	–
28	–	Cc1c(Cc2ccccc2S(=O)(=O)C2CCCCC2)c2c(n1CC(=O)O)CCNC2=O	–
6.6	1.3	Cc1c(Cc2ccccc2S(=O)(=O)c2ccc(OC(F)(F)F)cc2)c2c(n1CC(=O)O)CCNC2=O	–
–	1.3	Cc1c(Cc2ccccc2S(=O)(=O)c2ccccc2)c2c(=O)[nH]ccc2n1CC(=O)O	Papp A→B [6]: 0.1 ×10⁻⁶ cm/s
2.2	21	Cc1c(Cc2ccccc2S(=O)(=O)c2ccccc2)c2c(=O)n(C(F)F)ccc2n1CC(=O)O	Papp A→B [6]: 0.4 ×10⁻⁶ cm/s; inhibition [4]: < 30%; inhibition [5]: < 30%
–	0.8	Cc1c(Cc2ccccc2S(=O)(=O)c2cccc(F)c2)c2c(n1CC(=O)O)CCNC2=O	inhibition [4]: < 30%; inhibition [5]: < 30%
16	2	Cc1c(Cc2ccccc2S(=O)(=O)c2ccccc2)c2c(Cl)nccc2n1CC(=O)O	–
240	–	CCN(Cc1ccccc1Cc1c2c(n(CC(=O)O)c1C)CCNC2=O)C(=O)C1CC1	–
480	–	Cc1c(Cc2ccccc2-c2cccc3ccccc23)c2c(n1CC(=O)O)CCNC2=O	–
–	3.2	COc1ccc(S(=O)(=O)c2ccccc2Cc2c3c(n(CC(=O)O)c2C)CCNC3=O)cc1	–
4500	–	COc1cccc(S(=O)(=O)c2ccccc2)c1Cc1c2c(n(CC(=O)O)c1C)CCNC2=O	–
–	1.8	COC(=O)c1ccc(Cc2c3c(n(CC(=O)O)c2C)CCNC3=O)c(S(=O)(=O)c2ccccc2)c1	–
28	0.6	Cc1c(Cc2cc(C#N)ccc2S(=O)(=O)c2ccccc2)c2c(n1CC(=O)O)CCNC2=O	–

IC50 [1] [nM]	T1/2 [2] [h]	SMILES	also measured
810	–	Cc1c(Cc2ccccc2C(=O)c2ccccc2)c2c(n1CC(=O)O)CCNC2=O	–
–	0.4	COc1cccc(Cc2c3c(n(CC(=O)O)c2C)CCNC3=O)c1S(=O)(=O)c1ccccc1	–
430	–	Cc1c(Cc2ccccc2S(=O)(=O)c2ccccc2)c2c(n1[C@H](C)C(=O)O)CCNC2=O	–
19	–	Cc1c(Cc2ccc(C(=O)O)cc2S(=O)(=O)c2ccccc2)c2c(n1CC(=O)O)CCNC2=O	–
–	5.7	Cc1c(Cc2cc(Br)ccc2S(=O)(=O)c2ccccc2)c2c(n1CC(=O)O)CCNC2=O	–
6	2.1	Cc1c(Cc2ccccc2S(=O)(=O)c2ccccc2)c2c(n1CC(=O)O)CCN(C(C)C(F)(F)F)C2=O (centres undefined)	Papp A→B [6]: 0.6 ×10⁻⁶ cm/s
–	4.2	COc1ccc(S(=O)(=O)c2ccccc2)c(Cc2c3c(n(CC(=O)O)c2C)CCNC3=O)c1	inhibition [4]: < 30%; inhibition [5]: < 30%
800	–	Cc1c(Cc2ccccc2Cn2ccnn2)c2c(n1CC(=O)O)CCNC2=O	–
–	6.7	Cc1c(Cc2ccccc2S(=O)(=O)c2ccccc2)c2c(n1CC(=O)O)CCN(Cc1ccccc1)C2=O	pKa [3]: 3.3; inhibition [4]: < 30%; inhibition [5]: < 30%
26	0.6	Cc1c(Cc2ccccc2S(=O)(=O)N(C)Cc2ccccc2)c2c(n1CC(=O)O)CCNC2=O	–
240	–	CNC(=O)c1cccc(S(=O)(=O)c2ccccc2Cc2c3c(n(CC(=O)O)c2C)CCNC3=O)c1	–
3.3	3.3	Cc1c(Cc2ccccc2S(=O)(=O)c2ccc(F)cc2)c2c(n1CC(=O)O)CCNC2=O	Cmax [7]: 102 ng/mL; AUC(0-inf) [8]: 2460 ng·h/mL; Vd [9]: 0.19 L/kg; half-life [10]: 2.2 h; bioavailability [11]: 1.5%; Cmax [12]: 5740 ng/mL; half-life [13]: 5.6 h; inhibition [4]: < 30%; clearance [14]: 6.8 mL/min/kg; inhibition [5]: < 30%; AUC(0-inf) [15]: 380 ng·h/mL
91	–	Cc1c(Cc2ccccc2S(=O)(=O)c2ccccc2)c2c(n1[C@@H](C)C(=O)O)CCNC2=O	–
–	1.1	Cc1c(Cc2ccccc2S(=O)(=O)c2ccccc2F)c2c(n1CC(=O)O)CCNC2=O	–
7	5.3	Cc1c(Cc2ccccc2S(=O)(=O)c2ccccc2)c2c(n1CC(=O)O)CCN(C)C2=O	pKa [3]: 2.9
–	8	Cc1c(Cc2ccccc2S(=O)(=O)c2ccccc2)c2c(=O)n(C)ccc2n1CC(=O)O	Papp A→B [6]: 0.1 ×10⁻⁶ cm/s; inhibition [4]: < 30%; inhibition [5]: < 30%
10	4.6	CNC(=O)c1ccc(Cc2c3c(n(CC(=O)O)c2C)CCNC3=O)c(S(=O)(=O)c2ccccc2)c1	–
120	–	Cc1c(Cc2ccccc2Cc2ccccc2)c2c(n1CC(=O)O)CCNC2=O	Papp A→B [6]: 0.2 ×10⁻⁶ cm/s
5	20	COc1ccc(S(=O)(=O)c2ccc(F)cc2)c(Cc2c3c(n(CC(=O)O)c2C)CC(C)(C)NC3=O)c1	–
900	–	Cc1c(Cc2ccc(S(C)(=O)=O)cc2)c2c(n1CC(=O)O)CCNC2=O	–
3	0.9	Cc1c(Cc2ccc(S(=O)(=O)Cc3ccccc3)cc2)c2c(n1CC(=O)O)CCNC2=O	–
7.1	23	COc1ccc(S(=O)(=O)c2ccc(F)cc2)c(Cc2c3c(n(CC(=O)O)c2C)CCNC3=O)c1	Cmax [7]: 36 ng/mL; AUC(0-inf) [8]: 613 ng·h/mL; IC50 [16]: 2.4 nM; Vd [9]: 0.31 L/kg; half-life [10]: 0.3 h; bioavailability [11]: 1.2%; IC50 [17]: 4.1 nM; Cmax [12]: 1960 ng/mL; pKa [3]: 3.1; IC50 [18]: 10 nM; half-life [13]: 2.2 h; inhibition [4]: < 30%; clearance [14]: 27 mL/min/kg; inhibition [5]: < 30%; AUC(0-inf) [15]: 76 ng·h/mL; IC50 [19]: 3.6 nM; IC50 [20]: 6.9 nM; IC50 [21]: 2.1 nM

SMILES	IC50 [1] [nM]	T1/2 [2] [h]	also measured
Cc1c(Cc2ccccc2S(=O)(=O)c2ccccc2)c2c(n1CC(=O)O)CCN(C(C)C)C2=O	9	2.6	pKa [3]: 2.9
